Reference: ChEMBL document CHEMBL5154646, “Structure-guided optimization of 1H-imidazole-2-carboxylic acid derivatives affording potent VIM-Type metallo-β-lactamase inhibitors” (Eur J Med Chem, 2022)
Activity calls are given as the source filed them. The rule behind the calls is not given here.

Experiments:
Escherichia coli [1] = assay: Potentiation of meropenem-induced antibacterial activity against Escherichia coli C1580 expressing VIM-2 assessed as fold reduction in meropenem MIC at 10 ug/ml incubated for 18 to 20 hrs by CLSI based broth microtiter dilution method; type: functional; conditions: dose 10 µg/ml; time 18-20 hrs
[2] = Toxicity in ICR mouse assessed as mortality at 500 to 2000 mg/kg, ip administered for 14 days; type: organism-based; conditions: in vivo, 336 h, dose 500-2000 mg/kg, time 14 day
[3] = Toxicity in ICR mouse assessed as effect on histological architecture of liver at 500 to 2000 mg/kg, ip administered for 14 days by hematoxylin and eosin staining based histopathological assay; type: organism-based; conditions: in vivo, 336 h, dose 500-2000 mg/kg, time 14 day
[4] = Inhibition of bacterial VIM-2 (27 to 266 residues) expressed in Escherichia coli Transetta (DE3) using FC-5 as substrate preincubated with enzyme for 10 mins followed by substrate addition by fluorescence based analysis; design: species or system Bacteria
Escherichia coli [5] = assay: Potentiation of meropenem-induced antibacterial activity against Escherichia coli C1580 expressing VIM-2 assessed as meropenem MIC at 10 ug/ml incubated for 18 to 20 hrs by CLSI based broth microtiter dilution method (reference value: 32 ug/ml); type: functional; conditions: dose 10 µg/ml, time 18-20 hrs
[6] = Inhibition of bacterial recombinant full length C-terminal-TEV-His6-tagged VIM-1 expressed in Escherichia coli Transetta using FC-5 as substrate preincubated with enzyme for 10 mins followed by substrate addition by fluorescence based analysis; design: species or system Bacteria
[7] = Inhibition of bacterial recombinant full length N-terminal-TEV-His6-tagged VIM-5 expressed in Escherichia coli Transetta using FC-5 as substrate preincubated with enzyme for 10 mins followed by substrate addition by fluorescence based analysis; design: species or system Bacteria
[8] = Inhibition of bacterial NDM-1 (1 to 270 residues) expressed in Escherichia coli Transetta (DE3) using FC-5 as substrate preincubated with enzyme for 10 mins followed by substrate addition by fluorescence based analysis; design: species or system Bacteria
[9] = Inhibition of bacterial IMP-1 (1 to 246 residues) expressed in Escherichia coli Transetta (DE3) using FC-5 as substrate preincubated with enzyme for 10 mins followed by substrate addition by fluorescence based analysis; design: species or system Bacteria
Escherichia coli [10] = assay: Potentiation of meropenem-induced antibacterial activity against Escherichia coli C1541 expressing VIM-2 assessed as meropenem MIC at 10 ug/ml incubated for 18 to 20 hrs by CLSI based broth microtiter dilution method (reference value: 16 ug/ml); type: functional; conditions: dose 10 µg/ml, time 18-20 hrs
Escherichia coli [11] = assay: Potentiation of meropenem-induced antibacterial activity against Escherichia coli C1542 expressing VIM-2 assessed as meropenem MIC at 10 ug/ml incubated for 18 to 20 hrs by CLSI based broth microtiter dilution method (reference value: 16 ug/ml); type: functional; conditions: dose 10 µg/ml, time 18-20 hrs
[12] = Toxicity in ICR mouse assessed as effect on histological architecture of heart at 500 to 2000 mg/kg, ip administered for 14 days by hematoxylin and eosin staining based histopathological assay; type: organism-based; conditions: in vivo, 336 h, dose 500-2000 mg/kg, time 14 day
Escherichia coli [13] = assay: Synergistic antibacterial activity against Escherichia coli C1541 expressing VIM-2 assessed as fractional inhibitory concentration index incubated for 18 to 20 hrs in presence of meropenem by checkerboard microdilution assay; type: functional; conditions: time 18-20 hrs
Pseudomonas aeruginosa [14] = assay: Potentiation of meropenem-induced antibacterial activity against Pseudomonas aeruginosa W35 expressing VIM-2 assessed as fold reduction meropenem MIC at 10 ug/ml incubated for 18 to 20 hrs in presence of meropenem by CLSI based broth microtiter dilution method; type: functional; conditions: dose 10 µg/ml; time 18-20 hrs
[15] = Inhibition of bacterial VIM-2 (27 to 266 residues) expressed in Escherichia coli Transetta (DE3) using FC-5 as substrate preincubated with enzyme for 10 mins followed by substrate addition in presence of 1 uM Zn2+ by fluorescence based analysis; design: species or system Bacteria
Escherichia coli [16] = assay: Synergistic antibacterial activity against Escherichia coli C1541 expressing VIM-2 assessed as fractional inhibitory concentration index incubated for 18 to 20 hrs in presence of meropenem and 1 uM of zinc sulfate by checkerboard microdilution assay; type: functional; conditions: time 18-20 hrs
Escherichia coli [17] = assay: Antibacterial activity against Escherichia coli C1580 expressing VIM-2 assessed as elongated and filamentous bacterial cells at 20 ug/ml incubated for 1 hr in presence of meropenem by confocal microscopy; type: functional, organism-based; conditions: dose 20.0 µg/ml
Escherichia coli [18] = assay: Bactericidal activity against Escherichia coli C1580 expressing VIM-2 assessed as induction of bacterial ultrastructural changes by measuring cellular debris at 20 ug/ml incubated for 1 hr in presence of meropenem by transmission electron microscopy; type: functional, organism-based; conditions: dose 20.0 µg/ml
Pseudomonas aeruginosa [19] = assay: Potentiation of meropenem-induced antibacterial activity against Pseudomonas aeruginosa W35 expressing VIM-2 assessed as meropenem MIC at 100 ug/ml incubated for 18 to 20 hrs in presence of meropenem by CLSI based broth microtiter dilution method (reference value: 64 ug/ml); type: functional; conditions: dose 100 µg/ml, time 18-20 hrs
Pseudomonas aeruginosa [20] = assay: Synergistic antibacterial activity against Pseudomonas aeruginosa W35 expressing VIM-2 assessed as fractional inhibitory concentration index incubated for 18 to 20 hrs in presence of meropenem by checkerboard microdilution assay; type: functional; conditions: time 18-20 hrs
Pseudomonas aeruginosa [21] = assay: Induction of morphological changes in Pseudomonas aeruginosa W35 expressing VIM-2 assessed as elongated morphology with localized swelling at 10 ug/ml incubated for 1 hr in presence of meropenem by confocal microscopic analysis; type: functional, organism-based; conditions: dose 10.0 µg/ml
[22] = Toxicity in ip dosed ICR mouse assessed as maximum tolerated dose administered for 14 days; type: organism-based; conditions: in vivo, time 14 day
[23] = Solubility of the compound in water; type: physicochemical
[24] = Cmax in Sprague-Dawley rat at 100 mg/kg, ip by UPLC analysis; type: ADME, organism-based; design: dose 100 mg/kg, route ip; conditions: in vivo
[25] = Half life in Sprague-Dawley rat at 100 mg/kg, ip by UPLC analysis; type: ADME, organism-based; conditions: in vivo
[26] = Toxicity in ICR mouse assessed as change in overall appearance at 500 to 2000 mg/kg, ip administered for 14 days; type: organism-based; conditions: in vivo, 336 h, dose 500-2000 mg/kg, time 14 day
[27] = Toxicity in ICR mouse assessed as effect on histological architecture of lungs at 500 to 2000 mg/kg, ip administered for 14 days by hematoxylin and eosin staining based histopathological assay; type: organism-based; conditions: in vivo, 336 h, dose 500-2000 mg/kg, time 14 day
[28] = Toxicity in ICR mouse assessed as effect on histological architecture of kidney at 500 to 2000 mg/kg, ip administered for 14 days by hematoxylin and eosin staining based histopathological assay; type: organism-based; conditions: in vivo, 336 h, dose 500-2000 mg/kg, time 14 day
Pseudomonas aeruginosa [29] = assay: Potentiation of meropenem-induced antibacterial activity against Pseudomonas aeruginosa 5621 expressing VIM-2 assessed as fold reduction in meropenem MIC at 100 ug/ml incubated for 18 to 20 hrs by CLSI based broth microtiter dilution method; type: functional; conditions: dose 100 µg/ml; time 18-20 hrs
Escherichia coli [30] = assay: Potentiation of meropenem-induced antibacterial activity against Escherichia coli C1542 expressing VIM-2 assessed as fold reduction in meropenem MIC at 10 ug/ml incubated for 18 to 20 hrs by CLSI based broth microtiter dilution method; type: functional; conditions: dose 10 µg/ml; time 18-20 hrs
Pseudomonas aeruginosa [31] = assay: Potentiation of meropenem-induced antibacterial activity against Pseudomonas aeruginosa W35 expressing VIM-2 assessed as fold reduction in meropenem MIC at 100 ug/ml incubated for 18 to 20 hrs by CLSI based broth microtiter dilution method; type: functional; conditions: dose 100 µg/ml; time 18-20 hrs

## O=C(O)c1nccn1Cc1ccncc1
Escherichia coli [1]
  fold change (FC): 32
[2]
  Activity: Non-Toxic
[3]
  Activity: Non-Toxic
[4]
  IC50: 0.56 µM
Escherichia coli [5]
  MIC: 1 µg/mL
[6]
  IC50: 29.5 µM
[7]
  IC50: 5.78 µM
[8]
  IC50: > 300 µM
[9]
  IC50: > 300 µM
Escherichia coli [10]
  MIC: < 0.25 µg/mL
Escherichia coli [11]
  MIC: < 0.25 µg/mL
[12]
  Activity: Non-Toxic
Escherichia coli [13]
  fractional inhibitory concentration index (FICI): 0.05
Pseudomonas aeruginosa [14]
  fold change (FC): 4
[15]
  IC50: 0.22 µM
Escherichia coli [16]
  fractional inhibitory concentration index (FICI): 0.05
Escherichia coli [17]
  Activity: Active
Escherichia coli [18]
  Activity: Active
Pseudomonas aeruginosa [19]
  MIC: 4 µg/mL
Pseudomonas aeruginosa [20]
  fractional inhibitory concentration index (FICI): 0.25
Pseudomonas aeruginosa [21]
  Activity: Active
[22]
  MTD at 336 h: ≤ 2000 mg/kg
[23]
  solubility: > 20 mg/mL
[24]
  Cmax: 143 µg/mL
[25]
  half-life: 1.24 h
[26]
  Activity: Non-Toxic
[27]
  Activity: Non-Toxic
[28]
  Activity: Non-Toxic
Pseudomonas aeruginosa [29]
  fold change (FC): 2
Escherichia coli [30]
  fold change (FC): >64
Pseudomonas aeruginosa [31]
  fold change (FC): 16
